Source: patent US10011863B2, “Methods for detecting enhanced NMDA receptor function and uses thereof” (INOVA HEALTH SYSTEM, priority 2016, dated 2018)

Key:
[1] = target: T1, recombinant human Elk-1 protein (Homo sapiens, UniProt P19419); assay: Electrophoretic Mobility Shift Assay (EMSA); format: binding; conditions: 1 μg recombinant human Elk-1; gel stained for DNA (SYBR Green) and protein (SYPRO Ruby)
T1 construct: purchased Sigma Aldrich
T1 sequence (P19419 1-428): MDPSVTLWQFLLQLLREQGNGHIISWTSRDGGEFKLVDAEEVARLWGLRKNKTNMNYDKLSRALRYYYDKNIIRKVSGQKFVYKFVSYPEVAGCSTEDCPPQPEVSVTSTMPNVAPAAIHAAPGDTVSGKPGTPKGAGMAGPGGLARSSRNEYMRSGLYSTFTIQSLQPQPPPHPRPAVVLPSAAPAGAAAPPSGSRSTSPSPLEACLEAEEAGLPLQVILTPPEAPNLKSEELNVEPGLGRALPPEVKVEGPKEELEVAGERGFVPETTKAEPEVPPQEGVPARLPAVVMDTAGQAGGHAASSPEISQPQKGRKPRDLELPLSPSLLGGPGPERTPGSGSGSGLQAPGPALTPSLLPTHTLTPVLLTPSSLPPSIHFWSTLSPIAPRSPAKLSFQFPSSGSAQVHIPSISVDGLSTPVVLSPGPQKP
Procedure: FIG. 2 depicts binding of recombinant Elk-1 protein (an ETS transcription factor) to double stranded DNAs containing the single nucleotide polymorphism (SNP) rs3764030 variant A allele from the human GRIN2B gene promoter. Double-stranded DNA targets (Methods) were sequentially incubated with 1 μg recombinant human Elk-1 protein in EMSA buffer, then incubated with the Elk-1 antibody 20 minutes. […] Samples were electrophoresed through 6% polyacrylamide gels in HEPES buffer pH 6.3, without polydldC. The gel was then stained with the SYBR Green to visualize DNA and SYPRO Ruby for protein bound to DNA. The stained gel was scanned using G:BOX (Syngene, US) for imaging. Elk-1 bound to DNA is indicated by the arrow.
Electrophoretic Mobility Shift Assay (EMSA). To monitor the interaction between the ETS domain transcription factor, Elk-1, and its DNA recognition sequence in vitro, we used EMSA. The DNA sequences for positive control containing a GGAT consensus core binding sequence were: Forward: 5′ […] 3′ (SEQ ID NO:2) and Reverse: 5′ […] 3′ (SEQ ID NO:3). The negative control region was: Forward: 5′ […] 3′ (SEQ ID NO:4) and Reverse: 5′ […] 3′ (SEQ ID NO:5), as described in Wei et al (2010). The forward and reverse sequence for GRIN2B A allele which created the ETS binding site were: 5′ […] 3′ (SEQ ID NO:6)and 5′ […] 3′ (SEQ ID NO:7), repectively. […]

[2] = tested on: human GRIN2B promoter (A allele of SNP rs3764030) in N2a cells; assay: dual-luciferase reporter gene assay, GRIN2B promoter A allele plasmid; format: cell-based, murine
Procedure: (§1) FIG. 3 depicts a concentration dependent response of human GRIN2B promoter in N2a cells carrying either the A or G alleles of SNP rs3764030 to NMDA. Luciferase reporter gene plasmids were constructed in pGL 4.10 (to produce Firefly luciferase, Promega, US). Luciferase reporter plasmids and the pGL4.75 plasmid (to produce Renilla luciferase as a reference) were co-transfected into retinoic acid differentiated N2a cells and assayed for (Methods). After 24 hours of transfection, the cells were incubated for six hours with 0, 30, 50, 70 or 90 μM NMDA for transcription factors binding and then replaced with complete media (with 10% FBS) and cultured for an additional 40-44 hrs. Data are presented as means±SE.
(§2) Molecular and cellular characterization of a functional GRIN2B SNP: Luciferase vector construction. […]
(§3) Cell Culture, Transfection, and Luciferase assay. […] The luciferase activities were then measured in Synergy 4 plate reader (Biotek, US).
(§4) Murine Neuro-2a neuroblastoma cells were maintained in RPMI medium 1640 with 10% Fetal Bovine Serum (complete medium) at 37° C. in 5% CO2. […] The luciferase activities were then measured in Synergy 4 plate reader (Biotek US).

[3] = tested on: human GRIN2B promoter (G allele of SNP rs3764030) in N2a cells; assay: dual-luciferase reporter gene assay, GRIN2B promoter G allele plasmid; format: cell-based, murine; conditions: N2A cells transfected with G allele luciferase reporter plasmid; increasing concentrations of NMDA
Procedure: as §1, §2, §3, §4

Row | Compound | binding of recombinant Elk-1 to DNA probe [1] | dose-dependent increase in luciferase activity ([2]; N2A cells transfected with A allele reporter, increasing concentrations of NMDA (0, 30, 50, 70, 90 μM)) | reporter gene activity of A allele relative to cells carrying the G allele reporter ([2]; NMDA receptor activation, dose-dependent, A allele vs G allele) [fold] | luciferase reporter response to NMDA treatment [3]
1 | A allele DNA probe: annealed dsDNA of GRIN2B A allele, 5′ CATCTCCGGGGAACACGCGAA 3′ (SEQ ID NO:6) and SEQ ID NO:7, creating ETS binding site (chain 2 TTCGCGTGTTCCCCGGAGATG; listed as DNA, chemistry not given here) | bound recombinant Elk-1 to a greater extent than the G allele DNA probe | – | – | –
2 | CN[C@H](CC(=O)O)C(=O)O [NMDA, N-methyl-D-aspartate] | – | 2.4-11.5 fold | 2 | did not respond
